Source: patent US12398106B2, “Catecholamine carbamate prodrugs for use in the treatment of parkinson's disease” (H. Lundbeck A/S, priority 2019, dated 2025)

Legend:
[1] = PK experiments in rats: plasma compound (I) after oral dosing of prodrug; conditions: for Plasma concentrations / exposure of compound (I) after oral dosing of prodrug (in words): Wistar rats, doses equal to 287 μg/kg of compound (I); for Observed metabolite, in vivo PK study after oral dosing (rats): plasma
Protocol: For all the experiments, blood samples of approximately 0.68 mL were drawn from the tail or sublingual vein and put into K3EDTA tubes that had been pre-cooled and prepared with stabilizing solution consisting of 80 μL ascorbic acid and 40 μL 100 mM D-saccharic acid 1,4 lactone in water. The tubes were inverted gently 6-8 times to ensure thorough mixing and then placed in wet ice. The collecting tube was placed in wet ice for up to 30 minutes until centrifugation. Once removed from the wet ice the centrifugation was initiated immediately. Immediately after end of centrifugation the samples were returned to wet ice. Three sub-samples of 130 μL plasma were transferred to each of three appropriately labelled cryo tubes containing 6.5 μL pre-cooled formic acid (20%) (the tubes were pre-spiked and stored refrigerated prior to use). The tube lid was immediately replaced, and the plasma solution was thoroughly mixed by inverting gently 6-8 times. The samples were stored frozen at nominally −70° C. within 60 minutes after sampling. Centrifugation conditions at 3000 G for 10 minutes at 4° C. Plasma was placed on water-ice following collection. Final storage at approximately −70° C.
Plasma samples were analyzed by solid phase extraction or direct protein precipitation followed by UPLC-MS/MS. MS detection using electrospray in the positive ion mode with monitoring of specific mass-to-charge transitions for compound (I) using internal standards for correcting the response. The concentration-time data was analyzed, using standard software using appropriate noncompartmental techniques to obtain estimates of the derived PK parameters.
Mass spectrometer (LC-MS/MS) Waters Acquity-Sciex API 5000. Analytical column Waters BEH UPLC Phenyl 100×2.1 mm column, 1.7 μm particle size. Mobile phase A: 20 mM ammonium formate (aq)+0.5% formic acid. Mobile phase B: Acetonitrile. Gradient run from 95/5% to 2/98 in 6.1 minutes. Flow rate 0.5 mL/min. MRM monitoring (multiple reaction monitoring) of test item and the added analytical standards
Han Wistar rats were supplied by Charles River Laboratories, Sulzfeld, Germany. An artificial, automatically controlled, light and dark cycle of 12 hours was maintained. The rats received a standard laboratory diet from Brogaarden (Altromin 1324 pellets). The rats had unrestricted access to the diet.
Mass spectrometer (LC-MS/MS) Waters Acquity-Sciex API 5000. Analytical column Waters BEH UPLC Phenyl 100×2.1 mm column, 1.7 μm particle size. Mobile phase A: 20 mM ammonium formate (aq)+0.5% formic acid. Mobile phase B: Acetonitrile. Gradient run from 95/5% to 2/98 in 6.1 minutes. Flow rate 0.5 mL/min. MRM monitoring of test item and the added analytical standards.
Han Wistar rats were supplied by Charles River Laboratories, UK. An artificial, automatically controlled, light and dark cycle of 12 hours was maintained. The rats received a standard laboratory diet (Teklad 2014C Diet.). The rats had unrestricted access to the diet.
Mass spectrometer (LC-MS/MS) Waters Acquity—Waters Xevo TQ-S. Analytical column Acquity BEH C18 100×2.1 mm, 1.7 μm. Mobile phase A: 20 mM NH4—Formate+0.2% formic acid. Mobile phase B: Acetonitrile+0.2% formic acid. Gradient run from 95/5% to 5/95% in 11.0 minutes. Flow rate 0.3 mL/min. MRM monitoring of test item and the added analytical standards.
Han Wistar rats were supplied by Envigo, UK.

human 5-HT2B receptor [2] = target: T1, human 5-HT2B receptor (Homo sapiens, UniProt P41595); assay: 5-HT2B agonist activity assay (IP1 production, HTRF, transfected CHO cells); type: cell-based
T1 construct: host or cells: CHO cells
T1 sequence (P41595 whole entry): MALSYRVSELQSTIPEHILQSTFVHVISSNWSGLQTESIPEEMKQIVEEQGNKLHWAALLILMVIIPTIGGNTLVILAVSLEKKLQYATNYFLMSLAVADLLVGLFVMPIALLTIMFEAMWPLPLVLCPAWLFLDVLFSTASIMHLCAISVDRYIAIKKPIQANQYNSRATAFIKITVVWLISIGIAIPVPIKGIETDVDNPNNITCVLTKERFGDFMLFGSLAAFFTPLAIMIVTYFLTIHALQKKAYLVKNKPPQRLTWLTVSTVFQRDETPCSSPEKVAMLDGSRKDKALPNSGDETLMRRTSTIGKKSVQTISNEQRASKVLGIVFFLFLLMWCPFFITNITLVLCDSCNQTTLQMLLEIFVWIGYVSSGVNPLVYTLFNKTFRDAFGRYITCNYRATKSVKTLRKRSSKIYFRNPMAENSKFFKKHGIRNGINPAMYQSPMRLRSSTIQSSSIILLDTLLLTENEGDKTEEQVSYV
Protocol: Evaluation of the agonist activity of compounds (I), (Ia) and (Ib) at the human 5-HT2B receptor was performed by Eurofins/Cerep (France) measuring the compound effects on inositol monophosphate (IP1) production using the HTRF detection method. Briefly, the human 5-HT2B receptor was expressed in transfected CHO cells. The cells were suspended in a buffer containing 10 mM Hepes/NaOH (pH 7.4), 4.2 mM KCl, 146 mM NaCl, 1 mM CaCl2, 0.5 mM MgCl2, 5.5 mM glucose and 50 mM LiCl, then distributed in microplates at a density of 4100 cells/well and incubated for 30 min at 37° C. in the presence of buffer (basal control), test compound or reference agonist. For stimulated control measurement, separate assay wells contained 1 μM 5-HT. Following incubation, the cells were lysed and the fluorescence acceptor (fluorophen D2-labeled IP1) and fluorescence donor (anti-IP1 antibody labeled with europium cryptate) were added. After 60 minutes at room temperature, the fluorescence transfer was measured at lambda(Ex) 337 nm and lambda (Em) 620 and 665 nm using a microplate reader (Rubystar, BMG). The IP1 concentration was determined by dividing the signal measured at 665 nm by that measured at 620 nm (ratio). The results were expressed as a percent of the control response to 1 μM 5-HT. […]

[3] = Conversion of compounds in human plasma (incubation, LC-MS/MS); type: in vitro ADME; conditions: for Observed metabolite, incubation in human plasma: 1 μM test compound, 37° C., 0 to 6 hours
Protocol: Frozen human plasma was thawed and then centrifuged at 3200×g for 5 minutes to remove debris. The pH value of the supernatant was then measured and adjusted to 7.4±0.1 by adding 1% phosphoric acid or 1 N sodium hydroxide. 2 μL of dosing solution (50 μM for test compounds and 100 μM for positive control (propantheline bromide)) was mixed with 98 μL of blank plasma to achieve 1 μM test compound and 2 μM positive control of final concentration. The mixture was incubated, and samples were withdrawn from the incubations at the pre-determined time points of 0, 0.5, 1, 2, 4 and 6 hours (in duplicate) at 37° C. in water bath. At each corresponding time point 10 μL inhibitor and 20 μL ascorbic acid and 2 μL formic acid (20%) are added, and then added 400 μL of “stop solution” (200 ng/mL tolbutamide plus 200 ng/mL labetalol in 50% ACN/MeOH) to precipitate protein. The substance was mixed thoroughly and thereafter Centrifugated at 4,000 rpm for 20 minutes. Then an aliquot of supernatant (50 μL) was transferred from each well to a sample plate and mixed with 100 μL ultrapure water. The plate was shaked at 800 rpm for about 10 minutes before submitting to LC-MS/MS analysis.
Mass spectrometer (LC-MS/MS) Shimadzu LC 20-AD Shimadzu UHPLC API 4000. Analytical column ACQUITY UPLC® BEH Phenyl 1.7 μm 2.1×50 mm. Mobile phase A: 0.1% Formic Acid in Water. Mobile phase B: 0.1% Formic Acid in Acetonitrile. […] Flow rate 0.7 mL/min.

human 5-HT2B receptor [4] = target: T1, human 5-HT2B receptor; assay: 5-HT2B radioligand binding assay ([125I](±)DOI, CHO cell membranes); conditions: read-out: 5-HT2B % at single concentration (binding affinity, % inhibition of control specific binding per footnote)
Protocol: Evaluation of the affinity of compounds for the human 5-HT2B receptor was determined in a radioligand binding assay at Eurofins/Cerep (France). Membrane homogenates prepared from CHO cells expressing the human 5HT2B receptor were incubated for 60 minutes at room temperature with 0.2 nM [125I](±)DOI (1-(4-iodo-2, 5-dimethoxyphenyl)propan-2-amine) in the absence or presence of the test compound in a buffer containing 50 mM Tris-HCl (pH 7.4), 5 mM MgCl2, 10 μM pargyline and 0.1% ascorbic acid. Nonspecific binding is determined in the presence of 1 μM (±)DOI. Following incubation, the samples were filtered rapidly under vacuum through glass fiber filters (GF/B, Packard) presoaked with 0.3% polyethyleneimine (PEI) and rinsed several times with ice-cold 50 mM Tris-HCl using a 96-sample cell harvester (Unifilter, Packard). The filters were dried and counted for radioactivity in a scintillation counter (Topcount, Packard) using a scintillation cocktail (Microscint 0, Packard). The results are expressed as a percent inhibition of the control radioligand specific binding. The standard reference compound was (±)DOI, which was tested in each experiment at several concentrations to obtain a competition curve from which its IC50 is calculated.

[5] = man, after oral dosing; cited from earlier work

CCCN1CCC[C@@H]2CC3=C(CCCC3=O)C[C@H]21 [Compound (Ia), reference compound]
Plasma concentrations / exposure of compound (I) after oral dosing of prodrug (in words) [1]: early and high peak concentrations of compound (I) | 5-HT2B agonist effect at single concentration (human 5-HT2B receptor [2]; @30 μM, percent of the control response to 1 μM 5-HT): 58%

CCCN1CCC[C@@H]2Cc3c(ccc(OC(=O)C(C)(C)C)c3OC(=O)C(C)(C)C)C[C@H]21 [(Ic), reference compound]
Plasma concentrations / exposure of compound (I) after oral dosing of prodrug (in words) [1]: extremely low

CCCN1CCC[C@@H]2Cc3c(ccc(O)c3O)C[C@H]21 [Compound (I), (4aR,10aR)-1-Propyl-1,2,3,4,4a,5,10,10a-octahydro-benzo[g]quinoline-6,7-diol, reference compound]
Half-life in the plasma assay (in words) ([3]; human plasma incubation): short half-life

CCCN1CCC[C@@H]2Cc3c(ccc(OC(=O)N(C)C)c3OC(=O)N(C)C)C[C@H]21 [Compound (3), (4aR,10aR)-1-propyl-1,2,3,4,4a,5,10,10a-octahydrobenzo[g]quinoline-6,7-diyl bis(dimethylcarbamate)]
Observed metabolite, in vivo PK study after oral dosing (rats) [1]: Compound (I) | inhibition at 10 µM (human 5-HT2B receptor [4]): 4% | Observed metabolite, incubation in human plasma [3]: Compound (I)

CCCN1CCC[C@@H]2Cc3c(ccc(OC(=O)NCC)c3OC(=O)NCC)C[C@H]21 [Compound (2), (4aR,10aR)-1-propyl-1,2,3,4,4a,5,10,10a-octahydrobenzo[g]quinoline-6,7-diyl bis(ethylcarbamate)]
Observed metabolite, in vivo PK study after oral dosing (rats) [1]: Compound (I) | inhibition at 10 µM (human 5-HT2B receptor [4]): 3% | Observed metabolite, incubation in human plasma [3]: Compound (I)

CCCN1CCC[C@@H]2Cc3c(ccc4c3OCO4)C[C@H]21 [Compound (Ib), (6aR,10aR)-7-propyl-6,6a,7,8,9,10,10a,11-octahydro-[1,3]dioxolo[4′,5′:5,6]benzo[1,2-g]quinoline, reference compound]
Plasma concentrations / exposure of compound (I) after oral dosing of prodrug (in words) [1]: early and high peak concentrations of compound (I) | 5-HT2B receptor agonism (in words) (human 5-HT2B receptor [2]; c.f. example 2 and Table 3): agonist of the 5-HT2B receptor

CCCN1CCC[C@@H]2Cc3c(ccc(OC(=O)NC)c3OC(=O)NC)C[C@H]21 [Compound (1), (4aR,10aR)-1-propyl-1,2,3,4,4a,5,10,10a-octahydrobenzo[g]quinoline-6,7-diyl bis(methylcarbamate)]
Observed metabolite, in vivo PK study after oral dosing (rats) [1]: Compound (I) | inhibition at 10 µM (human 5-HT2B receptor [4]): 3%

CCCc1cc2c(s1)CN[C@@H]1CCc3cc(OC(C)=O)c(OC(C)=O)cc3[C@@H]21 [Adrogolide]
Oral bioavailability [5]: ~4%
